IC50 and melting point data for 14 compounds are collected here from patent US7317033B2, “Substituted thiophenes: compositions, processes of making, and uses in disease treatment and diagnosis” (Sanofi-Aventis Deutschland GmbH, priority 2002, dated 2008).

pIC50: −log10 of the molar value. Where a name gives a salt, the structure may show the parent alone.

One data set concerns the target T1, hNHE3 (Homo sapiens, UniProt P48764).
T1 construct: host or cells: cells, not specified
T1 sequence (P48764 26-834): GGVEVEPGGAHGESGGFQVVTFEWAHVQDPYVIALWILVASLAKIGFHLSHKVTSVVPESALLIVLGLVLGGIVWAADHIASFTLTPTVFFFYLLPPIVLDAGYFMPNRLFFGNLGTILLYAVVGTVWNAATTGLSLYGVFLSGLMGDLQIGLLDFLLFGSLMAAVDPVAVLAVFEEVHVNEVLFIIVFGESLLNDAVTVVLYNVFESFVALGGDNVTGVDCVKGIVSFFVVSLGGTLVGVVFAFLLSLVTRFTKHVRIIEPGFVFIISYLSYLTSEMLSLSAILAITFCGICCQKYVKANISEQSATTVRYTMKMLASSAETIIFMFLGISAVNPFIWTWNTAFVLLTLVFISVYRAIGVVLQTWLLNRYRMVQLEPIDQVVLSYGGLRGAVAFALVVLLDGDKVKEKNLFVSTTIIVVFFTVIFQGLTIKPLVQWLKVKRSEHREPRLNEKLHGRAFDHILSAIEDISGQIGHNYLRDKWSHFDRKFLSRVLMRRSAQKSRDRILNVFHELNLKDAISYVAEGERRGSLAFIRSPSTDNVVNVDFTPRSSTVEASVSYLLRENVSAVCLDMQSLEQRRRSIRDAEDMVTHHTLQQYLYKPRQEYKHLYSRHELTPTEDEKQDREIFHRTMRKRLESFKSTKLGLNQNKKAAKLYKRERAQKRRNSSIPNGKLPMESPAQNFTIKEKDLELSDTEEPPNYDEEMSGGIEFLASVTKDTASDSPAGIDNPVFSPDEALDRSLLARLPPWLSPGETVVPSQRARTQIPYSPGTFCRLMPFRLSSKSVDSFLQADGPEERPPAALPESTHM
Put plainly: recovery of intracellular pH (pHi) after acidification, BCECF fluorescence, hNHE3. The format is cell-based. Conditions: pH recovery recorded for three minutes. On the procedure:
In this test, the recovery of the intracellular pH (pHi) after an acidification, which starts when the NHE is capable of functioning, even under bicarbonate-free conditions, was determined. For this purpose, the pHi was determined using the pH-sensitive fluorescent dye BCECF (Calbiochem, the precursor BCECF-AM is employed). The cells were initially loaded with BCECF. The BCECF fluorescence was determined in a “ratio fluorescence spectrometer” (Photon Technology International, South Brunswick, N.J., USA) with excitation wavelengths of 505 and 440 nm and an emission wavelength of 535 nm, and was converted into the pHi using calibration plots. The cells were incubated in NH4Cl buffer (pH 7.4) (NH4Cl buffer: 115 mM NaCl, 20 mM NH4Cl, 5 mM KCl, 1 mM CaCl2, 1 mM MgSO4, 20 mM Hepes, 5 mM glucose, 1 mg/ml BSA; a pH of 7.4 is established with 1 M NaOH) even during the BCECF loading. The intracellular acidification was induced by addition of 975 μl of an NH4Cl-free buffer (see below) to 25 μl aliquots of the cells incubated in NH4Cl buffer. The subsequent rate of pH recovery was recorded in the case of NHE1 for two minutes, in the case of NHE2 for five minutes and in the case of NHE3 for three minutes. To calculate the inhibitory power of the tested substances, the cells were initially investigated in buffers in which complete or absolutely no pH recovery took place. For complete pH recovery (100%), the cells were incubated in Na^+-containing buffer (133.8 mM NaCl, 4.7 mM KCl, 1.25 mM CaCl2, 1.25 mM MgCl2, 0.97 mM Na2HPO4, 0.23 mM NaH2PO4, 5 mM Hepes, 5 mM glucose, a pH of 7.0 is established with 1 M NaOH). To determine the 0% value, the cells were incubated in an Na^+-free buffer (133.8 mM choline chloride, 4.7 mM KCl, 1.25 mM CaCl2, 1.25 mM MgCl2, 0.97 mM K2HPO4, 0.23 mM KH2PO4, 5 mM Hepes, 5 mM glucose, a pH of 7.0 is established with 1 M KOH). The substances to be tested were made up in the Na^+-containing buffer. Recovery of the intracellular pH at each tested concentration of a substance was expressed as a percentage of the maximum recovery. Using the Sigma-Plot program, the IC50 value of the substance in question was calculated for the individual NHE subtypes using the percentages for pH recovery.

The target of a further data set is T2, rNHE3 (Rattus norvegicus, UniProt P26433).
T2 construct: host or cells: cells, not specified
Briefly: recovery of intracellular pH (pHi) after acidification, BCECF fluorescence, rNHE3. It counts as cell-based. The settings on record: pH recovery recorded for three minutes. On the procedure: In this test, the recovery of the intracellular pH (pHi) after an acidification, which starts when the NHE is capable of functioning, even under bicarbonate-free conditions, was determined. For this purpose, the pHi was determined using the pH-sensitive fluorescent dye BCECF (Calbiochem, the precursor BCECF-AM is employed). The cells were initially loaded with BCECF. The BCECF fluorescence was determined in a “ratio fluorescence spectrometer” (Photon Technology International, South Brunswick, N.J., USA) with excitation wavelengths of 505 and 440 nm and an emission wavelength of 535 nm, and was converted into the pHi using calibration plots. The cells were incubated in NH4Cl buffer (pH 7.4) (NH4Cl buffer: 115 mM NaCl, 20 mM NH4Cl, 5 mM KCl, 1 mM CaCl2, 1 mM MgSO4, 20 mM Hepes, 5 mM glucose, 1 mg/ml BSA; a pH of 7.4 is established with 1 M NaOH) even during the BCECF loading. […] The subsequent rate of pH recovery was recorded in the case of NHE1 for two minutes, in the case of NHE2 for five minutes and in the case of NHE3 for three minutes. […] Recovery of the intracellular pH at each tested concentration of a substance was expressed as a percentage of the maximum recovery. Using the Sigma-Plot program, the IC50 value of the substance in question was calculated for the individual NHE subtypes using the percentages for pH recovery.

T2 sequence (P26433 29-831): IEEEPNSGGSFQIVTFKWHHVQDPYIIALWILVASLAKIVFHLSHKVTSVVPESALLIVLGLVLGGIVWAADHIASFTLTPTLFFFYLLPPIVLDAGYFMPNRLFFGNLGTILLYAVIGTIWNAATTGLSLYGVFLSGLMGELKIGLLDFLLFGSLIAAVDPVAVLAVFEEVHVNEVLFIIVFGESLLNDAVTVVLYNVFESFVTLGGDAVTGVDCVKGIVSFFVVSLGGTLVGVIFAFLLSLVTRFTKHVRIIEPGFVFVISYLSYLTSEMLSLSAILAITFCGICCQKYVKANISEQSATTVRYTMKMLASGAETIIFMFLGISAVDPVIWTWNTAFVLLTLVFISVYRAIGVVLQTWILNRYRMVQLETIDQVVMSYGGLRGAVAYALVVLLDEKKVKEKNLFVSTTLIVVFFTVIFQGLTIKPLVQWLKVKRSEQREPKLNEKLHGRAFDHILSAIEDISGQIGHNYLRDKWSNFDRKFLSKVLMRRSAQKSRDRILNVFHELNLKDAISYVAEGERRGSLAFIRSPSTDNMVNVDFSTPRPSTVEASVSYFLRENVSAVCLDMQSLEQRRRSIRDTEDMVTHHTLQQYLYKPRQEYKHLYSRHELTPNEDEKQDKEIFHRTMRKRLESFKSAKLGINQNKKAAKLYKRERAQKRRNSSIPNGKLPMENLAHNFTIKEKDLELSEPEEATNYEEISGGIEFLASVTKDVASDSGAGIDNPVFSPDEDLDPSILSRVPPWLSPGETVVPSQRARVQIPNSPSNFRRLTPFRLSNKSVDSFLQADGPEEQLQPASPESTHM

For `Clc1csc(Cl)c1NC1=N[C@@H]2CCCC[C@H]2N1` [Example 63, trans-R,R-2,4-Dichloro-3N-(3a,4,5,6,7,7a-hexahydro-1H-2-benzimidazolyl)-3-thienylamine Hydrochloride], on hNHE3, the negative logarithm of the IC50 (pIC50) (usually the negative decadic logarithm of the IC50, by convention in mol/L) is 6.27.

`Cc1csc(Cl)c1Nc1nc2ccccc2[nH]1` [Example 12, 2-Chloro-3N-(2-benzimidazolyl)-4-methyl-3-thienylamine hydrochloride]: the pIC50 against rNHE3 was 6.92.

In turn, `Clc1cscc1NC1=N[C@H]2CCCC[C@@H]2N1` [Example 60, trans-(3aS,7aS)-4-Chloro-3N-(3a,4,5,6,7,7a-hexahydro-1H-2-benzimidazolyl)-3-thienylamine Hydrochloride] had a pIC50 at hNHE3 of 6.72.

On to `Cc1csc(Cl)c1N(C)c1nc2ccccc2[nH]1` [Example 44, (1H-Benzimidazol-2-yl)-(2-chloro-4-methylthiophen-3-yl)methylamine], for which the negative-log IC50 (pIC50) against hNHE3 was 5.80.

For `Cc1csc(Cl)c1Nc1nc2cc(F)ccc2[nH]1` (as salt: hydrochloride) [Example 2, 2-Chloro-3N-(5-fluoro-2-benzimidazolyl)-4-methyl-3-thienylamine hydrochloride], the melting point – broadly, the temperature, or range, at which the solid turns liquid – lay within 200 to 202 °C.

As to `Fc1cc2nc(Nc3c(Cl)csc3Cl)[nH]c2cc1F` [Example 56, (2,4-Dichloro-thiophen-3-yl)-(5,6-difluoro-1H-benzoimidazol-2-yl)-amine-hydrochloride], at hNHE3, the pIC50 was 6.66.

In the case of `Cc1csc(Br)c1NC1=N[C@@H]2CCCC[C@H]2N1` [Example 19, trans-R,R-2-Bromo-3N-(3a,4,5,6,7,7a-hexahydro-1H-2-benz-imidazolyl)-4-methyl-3-thienylamine hydrochloride], at hNHE3, the pIC50 was 6.25.

`Cc1csc(Cl)c1NC1=N[C@@H]2CCCC[C@H]2N1` [Example 16, trans-R,R-2-chloro-3N-(3a,4,5,6,7,7a-hexahydro-1H-2-benzimidazolyl)-4-methyl-3-thienylamine hydrochloride] showed a negative logarithm of the IC50 (pIC50) on rNHE3 of 6.57.

With `Cc1csc(Cl)c1Nc1nc2cc(F)ccc2[nH]1` [Example 2, 2-Chloro-3N-(5-fluoro-2-benzimidazolyl)-4-methyl-3-thienylamine hydrochloride], the pIC50 against hNHE3 is 6.21.

`Clc1csc(Br)c1Nc1nc2ccccc2[nH]1` [Example 53, 2-Bromo-4-chloro-3N-(2-benzimidazolylamino)thiophene hydrochloride] showed a negative logarithm of the IC50 (pIC50) against hNHE3 of 6.85.

In turn, `Cc1csc(Cl)c1NC1=N[C@@H]2CCCC[C@H]2N1` (as salt: hydrochloride) [Example 16, trans-R,R-2-chloro-3N-(3a,4,5,6,7,7a-hexahydro-1H-2-benzimidazolyl)-4-methyl-3-thienylamine hydrochloride] yielded a melting point of 260 to 262 °C.

`Cc1csc(Br)c1Nc1nc2ccccc2[nH]1` [Example 18, 2-Bromo-3N-(2-benzimidazolyl)-4-methyl-3-thienylamine hydrochloride] gave a negative logarithm of the IC50 (pIC50) against hNHE3 of 6.92.

For the compound `Fc1ccc2[nH]c(Nc3c(Cl)csc3Cl)nc2c1` [Example 54, (2,4-Dichloro-thiophen-3-yl)-(5-fluoro-1H-benzoimidazol-2-yl)-amine-hydrochloride], the negative-log IC50 (pIC50) against hNHE3 was 6.66.

`Cc1csc(Cl)c1Nc1nc2c(O)cccc2[nH]1` [Example 38, 2-Chloro-3N-(4-hydroxy-2-benzimidazolylamino)-4-methylthiophene hydrochloride]: the negative-log IC50 (pIC50) at hNHE3 was 6.08. This pIC50 is 0.58 log units lower than that of the compound before.
